Laboratory results reported in paper PMC8041284, “Tunable Methacrylamides for Covalent Ligand Directed Release Chemistry” (Journal of the American Chemical Society, 2021).

The molecules below were run against BTK (Homo sapiens, UniProt Q06187) (assay: biochemical). Details: read-out: BTK inhibition (%).
Sequence of BTK (Q06187 402-655 limits assumed): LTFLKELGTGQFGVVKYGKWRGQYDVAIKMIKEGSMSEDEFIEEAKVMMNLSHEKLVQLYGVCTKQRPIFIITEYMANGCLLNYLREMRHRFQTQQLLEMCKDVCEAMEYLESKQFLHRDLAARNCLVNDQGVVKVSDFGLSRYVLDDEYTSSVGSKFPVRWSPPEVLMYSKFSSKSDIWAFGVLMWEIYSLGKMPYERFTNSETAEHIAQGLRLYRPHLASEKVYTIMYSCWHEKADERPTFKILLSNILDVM
In the case of `Cc1ccc2c(c1)[C@]13CCCC[C@@H]1[C@H](C2)N(C)CC3` [PCM-0216574], the inhibition at 10 µM is reported as 12.8%. `C[C@@H]1CC[C@@]2(NC1)O[C@H]1C[C@H]3[C@@H]4CC=C5C[C@@H](O[C@@H]6O[C@H](CO)[C@@H](O[C@@H]7O[C@@H](C)[C@H](O)[C@@H](O)[C@H]7O)[C@H](O)[C@H]6O)CC[C@]5(C)[C@H]4CC[C@]3(C)[C@H]1[C@@H]2C` [PCM-0216606] was tested, and the inhibition at 10 µM was -6.9%. Work on `CC1(C)CC(O)CC(C)(C)N1[O]` [PCM-0095391] yielded an inhibition at 10 µM of 10.3%.

Same assay, conditions: read-out: BTK inhibition (%), 0.75 uM BTK, […] probe 3l, 15 min preincubation
In the case of `CC(=O)O[C@H]1CC/C(C)=C/CC/C(C)=C/C[C@]2(C(C)C)CC[C@@]1(C)O2` [PCM-0216348], the inhibition at 10 µM is reported as -10%. Work on `O=C1O[C@H]2[C@@H]3OC(=O)c4cc(O)c(O)c(O)c4-c4c(cc(O)c(O)c4O)C(=O)OC[C@H]2O[C@@H](OC(=O)c2cc(O)c(O)c(O)c2)[C@@H]3OC(=O)c2cc(O)c(O)c3c2[C@@H]2C1=CC(=O)[C@](O)(O3)C2(O)O` [PCM-0216302] yielded an inhibition at 10 µM of 0%. Work on `O=C(CCCCCCNC(=O)c1cnc(N(c2ccccc2)c2ccccc2)nc1)NO` [PCM-0095595] yielded an inhibition at 10 µM of -18.5%. `CCOC(=O)[C@H](CCc1ccccc1)N[C@H]1CCc2ccccc2N(CC(=O)O)C1=O` [PCM-0086130] showed an inhibition at 10 µM of -24.9%. Work on `C[C@H](Oc1ccc(S(C)(=O)=O)cc1C(=O)N1CCN(c2ncc(C(F)(F)F)cc2F)CC1)C(F)(F)F` [PCM-0215624] yielded an inhibition at 10 µM of -20.1%. In the case of `CC(=O)O/N=C1\C(=O)N(Cc2cc(Cl)ccc2Cl)c2ccc(Cl)cc21` [PCM-0095733], the inhibition at 10 µM is reported as 28.6%. In the case of `COC(=O)Nc1nc2ccc([S+]([O-])c3ccccc3)cc2[nH]1` (stereo not drawn) [PCM-0086213], the inhibition at 10 µM is reported as 17.9%. Molecule `Cc1c(C(C)C)c(=O)n(-c2ccccc2)n1C` [PCM-0216024] has an inhibition at 10 µM of -11.7%. With `COc1cc2c(cc1O)C[C@H]1c3cc(O)c(OC)cc3CC[N+]1(C)C2` (stereo partly drawn) [PCM-0216444] the inhibition at 10 µM was 2.3%. `Cc1cnc(Nc2ccc(N3CCN(C)CC3)cc2)nc1Nc1cccc(S(=O)(=O)NC(C)(C)C)c1` [PCM-0095386] gave an inhibition at 10 µM of 82.8%. With `CN1C(CCl)Nc2cc(Cl)c(S(N)(=O)=O)cc2S1(=O)=O` (stereo not drawn) [PCM-0095604] the inhibition at 10 µM was -2.3%. `C[C@@]12CC[C@@H]3[C@@](CC[C@H]4[C@@]3(C)CCC[C@@]4(C)C(=O)O)(CC1=O)C2` [PCM-0215049] showed an inhibition at 10 µM of -16.3%. Work on `Fc1ccc2[nH]ccc2c1-c1nc(N2CCOCC2)c2sc(CN3CCN(CC4CC4)CC3)cc2n1` [PCM-0215422] yielded an inhibition at 10 µM of -18.6%. Work on `CC1(C)C[C@@H]1C(=O)N/C(=C\CCCCSC[C@H](N)C(=O)O)C(=O)O` [PCM-0216257] yielded an inhibition at 10 µM of -10%. Work on `OB1OCc2cc(F)ccc21` [PCM-0101990] yielded an inhibition at 10 µM of -10%. Molecule `COc1ccc2cc(-c3nc(-c4ccc([S+](C)[O-])cc4)[nH]c3-c3ccncc3)ccc2c1` (stereo not drawn) [PCM-0095143] has an inhibition at 10 µM of 33.8%. Work on `N[C@@H](C(=O)N[C@@H]1C(=O)N2C(C(=O)O)=C(Cl)CS[C@H]12)c1ccccc1` [PCM-0214861] yielded an inhibition at 10 µM of -13.2%. In the case of `CCC[C@H](NC(=O)[C@@H]1[C@H]2CCC[C@H]2CN1C(=O)[C@@H](NC(=O)[C@@H](NC(=O)c1cnccn1)C1CCCCC1)C(C)(C)C)C(=O)C(=O)NC1CC1` [PCM-0214791], the inhibition at 10 µM is reported as -3.1%. Molecule `COc1cc(C(=O)O)cc(OC)c1OC` [PCM-0215032] has an inhibition at 10 µM of -21%. `C/C=C(/C)C(=O)O[C@H]1c2cc(OC)c(OC)c(OC)c2-c2c(cc3c(c2OC)OCO3)C[C@H](C)[C@]1(C)O` [PCM-0216333] showed an inhibition at 10 µM of -25.5%. `COc1ccnc2[nH]cc(C(=O)C(=O)N3CCN(C(=O)c4ccccc4)C[C@H]3C)c12` [PCM-0095512] was tested, and the inhibition at 10 µM was 0.7%. For `COc1cccc(-c2c(C)n(Cc3c(F)cccc3C(F)(F)F)c(=O)n(C[C@H](NCCCC(=O)O)c3ccccc3)c2=O)c1F` [PCM-0215104], the inhibition at 10 µM was -7%. For `O=C(O)CCCC[C@@H]1SC[C@@H]2NC(=O)N[C@@H]21` [PCM-0085973], the inhibition at 10 µM was 0%. Work on `Cc1c(Cn2c(C)nc3c(C(=O)O)cc(N4CCOCC4)cc32)cccc1C(F)(F)F` [PCM-0095596] yielded an inhibition at 10 µM of -22.1%. With `O=C1CCc2ccc(OCCCCN3CCN(c4cccc(Cl)c4Cl)CC3)cc2N1` [PCM-0086268] the inhibition at 10 µM was -10.9%. Work on `CC(C)C[C@H](NC(=O)[C@H]1O[C@@H]1C(=O)O)C(=O)NCCCCN=C(N)N` [PCM-0215218] yielded an inhibition at 10 µM of 15.4%. For `O=c1[nH]c(=O)c2ncn([C@@H]3O[C@H](CO)[C@@H](O)[C@H]3O)c2[nH]1` [PCM-0216292], the inhibition at 10 µM was 13.1%. `C/C=C(/C)C(=O)OC(=O)/C(C)=C\C` [PCM-0215943] showed an inhibition at 10 µM of -8.6%. `O=C1c2ccccc2C(=O)c2c1ccc(O)c2O` [PCM-0095289] was tested, and the inhibition at 10 µM was 49.8%. `C=C1C[C@@]23CC[C@H]4[C@@](C)(CCC[C@@]4(C)C(=O)O[C@@H]4O[C@H](CO)[C@@H](O)[C@H](O)[C@H]4O)[C@@H]2CC[C@]1(O[C@@H]1O[C@H](CO)[C@@H](O)[C@H](O)[C@H]1O[C@@H]1O[C@H](CO)[C@@H](O)[C@H](O)[C@H]1O)C3` [PCM-0216121] was tested, and the inhibition at 10 µM was -27.8%. Work on `Cc1nnc(C(=O)NC(C)(C)c2nc(C(=O)NCc3ccc(F)cc3)c(O)c(=O)n2C)o1` [PCM-0095277] yielded an inhibition at 10 µM of 4.7%. With `Cc1ccc(C=O)o1` [PCM-0216625] the inhibition at 10 µM was -5.4%. Molecule `CCc1cccc2c3c([nH]c12)C(CC)(CC(=O)O)OCC3` (stereo not drawn) [PCM-0094929] has an inhibition at 10 µM of 1.4%. Molecule `O=C(O)c1cc(N=Nc2ccc(O)c(C(=O)O)c2)ccc1O` [PCM-0214745] has an inhibition at 10 µM of 17.2%. `CNC(=O)c1cnn(-c2nc(N)c3ncn([C@@H]4O[C@H](CO)[C@@H](O)[C@H]4O)c3n2)c1` [PCM-0216236] gave an inhibition at 10 µM of 5.4%. `CC(C)(CO)c1cc2cc(NC(=O)C3(c4ccc5c(c4)OC(F)(F)O5)CC3)c(F)cc2n1C[C@@H](O)CO` [PCM-0095580] showed an inhibition at 10 µM of -27.8%. `CCOC(=O)O[C@]1(C(=O)OCCl)CC[C@H]2[C@@H]3CCC4=CC(=O)C=C[C@]4(C)[C@H]3[C@@H](O)C[C@@]21C` [PCM-0095115] showed an inhibition at 10 µM of 13.8%. `CC(=O)O[C@@]12CO[C@@H]1C[C@H](O)[C@@]1(C)C(=O)[C@H](O)C3=C(C)[C@@H](OC(=O)[C@H](O)[C@@H](NC(=O)c4ccccc4)c4ccccc4)C[C@@](O)([C@@H](OC(=O)c4ccccc4)[C@H]21)C3(C)C` [PCM-0214981] gave an inhibition at 10 µM of 9.3%. `Cc1cc(O)c2c(c1)C(=O)c1cc(O)cc(O)c1C2=O` [PCM-0065315] was tested, and the inhibition at 10 µM was 69.3%. Work on `OCc1ccc(O[C@@H]2O[C@H](CO)[C@@H](O)[C@H](O)[C@H]2O)cc1` [PCM-0094551] yielded an inhibition at 10 µM of 17.9%. `CCCCCCCCOc1ccccc1C(=O)Nc1ccc(C(=O)OCC[N+](C)(CC)CC)cc1` [PCM-0095536] was tested, and the inhibition at 10 µM was -64.6%. Work on `COc1cc(N2CCC(N3CCN(C)CC3)CC2)ccc1Nc1ncnc(Nc2ccccc2S(=O)(=O)C(C)C)n1` [PCM-0215273] yielded an inhibition at 10 µM of 89%. Work on `COc1cc2oc(-c3ccccc3)cc(=O)c2c(OC)c1OC` [PCM-0216616] yielded an inhibition at 10 µM of -34%. Molecule `COC(=O)C1=CO[C@@H](O)[C@@H]2C(CO)=CC[C@H]12` [PCM-0065168] has an inhibition at 10 µM of -1.6%. Work on `C=CC(=O)N1C/C(=C\c2ccc([N+](=O)[O-])cc2)C(=O)/C(=C/c2ccc([N+](=O)[O-])cc2)C1` [PCM-0214766] yielded an inhibition at 10 µM of -15.6%. `COc1ccc(C(=O)C(=O)c2ccc(OC)cc2)cc1` [PCM-0216078] was tested, and the inhibition at 10 µM was 24.7%. In the case of `COc1cc2c3c(c1OC)-c1ccccc1C[C@H]3N(C)CC2` [PCM-0215922], the inhibition at 10 µM is reported as -12.8%. `N#Cc1ccc([C@H]2CCc3cncn32)c(F)c1` [PCM-0215764] showed an inhibition at 10 µM of 6.2%. `NC(=O)C(c1ccccc1)(c1ccccc1)[C@@H]1CCN(CCc2ccc3c(c2)CCO3)C1` [PCM-0086175] showed an inhibition at 10 µM of 4.7%. With `Cc1cc(O)c(-c2ccc([C@@H](C)CN(C)C)cc2)c2c1[nH]c(=O)c1sccc12` [PCM-0215805] the inhibition at 10 µM was 38.6%. `CN1C(=O)CCS(=O)(=O)C1c1ccc(Cl)cc1` (stereo not drawn) [PCM-0065261] showed an inhibition at 10 µM of -14%. `C=CC(=O)Nc1cc2c(Nc3ccc(F)c(Cl)c3)ncnc2cc1OCCCN1CCOCC1` [PCM-0094917] showed an inhibition at 10 µM of 93.6%. In the case of `CC(C)(C)c1cc(O)ccc1O` [PCM-0215107], the inhibition at 10 µM is reported as 5.5%. Molecule `CC(C)N(CCCCOCC(=O)NS(C)(=O)=O)c1cnc(-c2ccccc2)c(-c2ccccc2)n1` [PCM-0214894] has an inhibition at 10 µM of 11.7%. With `Cc1cc(O)cc(O)c1` [PCM-0216278] the inhibition at 10 µM was 3.1%. In the case of `C[N+](C)(C)CCOP(=O)([O-])OC[C@H](O)CO` [PCM-0216043], the inhibition at 10 µM is reported as 1.7%. `O=C(O)P(=O)(O)O` [PCM-0090233] showed an inhibition at 10 µM of 1.6%. With `Cc1csc(-c2nnc(Nc3ccc(Oc4ncccc4-c4ccnc(N)n4)cc3)c3ccccc23)c1` [PCM-0095438] the inhibition at 10 µM was 97.9%. In the case of `CC(=O)Oc1c(C)c(C)c2c(c1C)CC[C@@](C)(CCC[C@H](C)CCC[C@H](C)CCCC(C)C)O2` [PCM-0215944], the inhibition at 10 µM is reported as 0%. `Nc1nc2n[nH]nc2c(=O)[nH]1` [PCM-0085758] was tested, and the inhibition at 10 µM was 4.7%. In the case of `CN1C(=O)COc2c(C(=O)NC3CN4CCC3CC4)cc(Cl)cc21` (stereo not drawn) [PCM-0095275], the inhibition at 10 µM is reported as -7.7%. `CC(C)c1cccc(O)c(=O)c1` [PCM-0215059] showed an inhibition at 10 µM of 3.9%. Molecule `Nc1ncnc2n[nH]c(Nc3ccc(F)cc3)c12` [PCM-0095728] has an inhibition at 10 µM of 37.9%. `CN1CCN(Cc2ccc(NC(=O)Cc3ccc(Oc4cc(NC(=O)C5CC5)ncn4)cc3)cc2C(F)(F)F)CC1` [PCM-0215373] gave an inhibition at 10 µM of 26.3%. With `CCNC(=O)Nc1ccc(-c2nc(N3CCOC[C@@H]3C)c3c(n2)C(C)(C)S(=O)(=O)C3)cc1` [PCM-0215744] the inhibition at 10 µM was -22.8%. `Oc1ccc(-c2nc(-c3ccc(F)cc3)c(-c3ccncc3)[nH]2)cc1` [PCM-0064463] was tested, and the inhibition at 10 µM was 18.6%. In the case of `CCN1CCN(Cc2ccc(-c3cc4c(N[C@H](C)c5ccccc5)ncnc4[nH]3)cc2)CC1` [PCM-0214628], the inhibition at 10 µM is reported as 41.4%. Molecule `O=C(O)CC(O)C(=O)O` (stereo not drawn) [PCM-0216336] has an inhibition at 10 µM of -11.6%. Work on `CN(C)c1nc(N(C)C)nc(N(C)C)n1` [PCM-0064404] yielded an inhibition at 10 µM of 15.9%. `C#C[C@]1(OC(C)=O)CC[C@H]2[C@@H]3CCC4=C[C@@H](OC(C)=O)CC[C@@H]4[C@H]3CC[C@@]21C` [PCM-0214663] gave an inhibition at 10 µM of 2.3%. `NCCc1ccc(O)c(O)c1` [PCM-0065130] gave an inhibition at 10 µM of -2.3%. Molecule `Cc1ccc(S(=O)(=O)OCC(=O)Nc2ccc(C(=O)O)c(O)c2)cc1` [PCM-0094985] has an inhibition at 10 µM of 29.6%.
